Test results: patent US20250002954A1, “Novel Compound, Use Thereof, and Method for Producing Same, and Compound-Containing Composition, Method for Producing 4-Trehalosamine, and Microorganism” (Microbial Chemistry Research Foundation, priority 2021, published 2025)

Tests used:
[1] = Starch aging inhibiting effect, enzyme assay 4 (rice flour gel); conditions: final concentration 10% or 15% (w/w), 48 and 96 hours
Method: Starch aging inhibiting effect was determined in a similar manner to the <Enzyme assay 3> except that potato starch was changed to rice flour (manufactured by OSAWA JAPAN) in the “—Preparation of measurement samples—” of the <Enzyme assay 3>. The results for the 10% (w/w) final concentration of the different sugars are shown in FIG. 15G, and the results for the 15% (w/w) final concentration of the different sugars are shown in FIG. 15H.

[2] = tested on: autophagy-related transcription factor EB (TFEB) in OVK18 and Mewo cells; experiment: Elevated expression and nuclear localization of TFEB (western blotting, immunostaining); assay type: cell-based, human; conditions: 50 mM 4-trehalosamine, 100 μM IMCTA-C14 or 100 mM trehalose, 14 hours
Method: Elevated expression and nuclear localization of autophagy-related transcription factor EB (TFEB) when human ovarian cancer cells or human malignant melanoma cells were treated with 4-trehalosamine or trehalose analog were determined by western blotting and immunostaining.
Fractionation of nuclear and cytoplasm was performed in the following manner using buffer that was a modification of the buffer according to the report of Dignam et al. (J. D. Dignam et al., Nucleic Acids Res, 1983, 11 (5), p. 1475-1489).
Human ovarian cancer cells OVK18 (obtained from RIKEN BRC) and human malignant melanoma cells Mewo (JCRB0066) were each inoculated on a 6-well plate at 2×10^5 cells/2 mL/well, and cultured in DMEM culture medium at 37° C. for 48 hours. After that, as with test example 10-1, a half of the culture fluid in each well was taken, and each compound was dissolved so that the final concentration is 50 mM 4-trehalosamine, 50 µM IMCTA-C14, 100 μM IMCTA-C14, or 100 mM trehalose. After dissolving it sufficiently, the cells were returned to the original well and treated at 37° C. for 14 hours. Untreated cells without addition of the compounds were used as control. […]
The protein concentration of each fraction was measured with protein quantification reagent (XL-Bradford, integrale) and the amount of expression of TFEB in each fraction was examined by western blotting. […]

[3] = Dynamics upon oral administration to mice (blood level, urinary and fecal excretion); assay type: in vivo, ICR mice; conditions: single oral dose 0.5 mg per g of body weight
Method: 4-trehalosamine or trehalose dissolved in saline at 0.5 mg/10 μL per g of body weight was orally administered in a single dose to ICR mice (9-week to 10-week old, female, n=5) that had been fasted overnight. The five mice on which the same treatment had been performed were placed in the same cage.
Urine and feces were regularly collected together. The collected feces were suspended in water at 200 mg/mL and centrifuged at 21,300×g for 5 minutes. The centrifuged supernatant of feces suspension and the collected urine were each diluted with methanol to 1/1,000, on which LC-MS analysis was performed under similar conditions to test example 1 and cumulative excretion of 4-trehalosamine (4TA) or trehalose (TRH) over time was calculated.
Blood was regularly collected from tail vein in an amount of around 10 μL to 20 μL, and 200 μL of methanol was added to it after measurement. After agitation on a vortex, it was centrifuged at 21,000×g for 5 minutes. The supernatant was diluted with methanol to ⅕ and LC-MS analysis was performed on it under similar conditions to test example 1. The results for 4-trehalosamine are shown in FIG. 19G and the results for trehalose are shown in FIG. 19H for each individual (n=5).

SMILES: N[C@H]1[C@H](O)[C@@H](O)[C@@H](O[C@H]2O[C@H](CO)[C@@H](O)[C@H](O)[C@H]2O)O[C@@H]1CO [4-trehalosamine]
- rate of degradation by β-amylase (starch aging inhibiting effect) [1]: significantly high rate of degradation by β-amylase at and after 48 hours compared to the other gels
- expression and nuclear localization of TFEB [2]: elevated expression and nuclear localization of TFEB
- absorption and blood circulation after oral administration ([3]; fasted): a portion of orally administered 4-trehalosamine is absorbed and circulates in blood for a certain amount of time
- excretion ([3]; urine and feces): excreted through feces and urine in the original form, without being degraded or modified
